Test results taken from ChEMBL document CHEMBL5154869, “Discovery of 4-((E)-3,5-dimethoxy-2-((E)-2-nitrovinyl)styryl)aniline derivatives as potent and orally active NLRP3 inflammasome inhibitors for colitis” (Eur J Med Chem, 2022).

Columns and labels:
[1] = biological target: NACHT, LRR and PYD domains-containing protein 3 (Mus musculus) (UniProt Q8R4B8); assay: Inhibition of NLRP3 inflammasome activation in LPS-stimulated mouse J774.A1 cells assessed as reduction in pyroptosis at 10 uM pretreated for 4 hrs with LPS and for 30 mins with compound prior to ATP addition and measured after 30 mins by PI/Hoechst33342 staining based analysis; assay type: cell-based; details: time 60.0 min
Sequence of NACHT, LRR and PYD domains-containing protein 3 (Mus musculus) (Q8R4B8 whole entry, the tested form may be a part): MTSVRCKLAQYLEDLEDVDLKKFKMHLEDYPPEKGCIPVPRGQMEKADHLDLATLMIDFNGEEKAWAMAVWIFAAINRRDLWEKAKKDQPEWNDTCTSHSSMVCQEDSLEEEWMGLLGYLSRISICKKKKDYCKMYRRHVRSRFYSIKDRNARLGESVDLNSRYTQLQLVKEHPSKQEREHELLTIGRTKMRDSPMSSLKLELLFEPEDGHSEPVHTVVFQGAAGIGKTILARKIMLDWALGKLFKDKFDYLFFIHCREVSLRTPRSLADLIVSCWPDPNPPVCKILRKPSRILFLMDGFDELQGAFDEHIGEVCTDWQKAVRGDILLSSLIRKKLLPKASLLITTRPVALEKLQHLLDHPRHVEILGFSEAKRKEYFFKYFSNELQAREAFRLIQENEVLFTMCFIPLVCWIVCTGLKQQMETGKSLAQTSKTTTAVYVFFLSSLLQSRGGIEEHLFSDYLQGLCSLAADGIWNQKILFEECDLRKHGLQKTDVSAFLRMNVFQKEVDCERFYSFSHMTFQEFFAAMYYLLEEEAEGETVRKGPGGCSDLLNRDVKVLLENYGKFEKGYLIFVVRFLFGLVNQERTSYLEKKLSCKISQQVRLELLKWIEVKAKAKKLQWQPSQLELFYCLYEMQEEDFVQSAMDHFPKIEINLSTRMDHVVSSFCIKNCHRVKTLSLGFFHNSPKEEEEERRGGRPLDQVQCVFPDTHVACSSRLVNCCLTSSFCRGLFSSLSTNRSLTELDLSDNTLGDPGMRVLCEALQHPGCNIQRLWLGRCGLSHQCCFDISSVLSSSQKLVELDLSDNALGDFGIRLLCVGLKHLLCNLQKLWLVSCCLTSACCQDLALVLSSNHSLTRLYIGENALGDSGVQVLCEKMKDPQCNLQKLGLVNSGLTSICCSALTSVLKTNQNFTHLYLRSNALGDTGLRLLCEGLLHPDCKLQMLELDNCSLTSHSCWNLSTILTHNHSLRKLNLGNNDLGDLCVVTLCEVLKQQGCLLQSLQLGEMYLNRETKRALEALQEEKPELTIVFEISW

[2] = Cytotoxicity against human L02 cells assessed as reduction in cell viability incubated for 24 hrs by MTT assay; assay type: toxicity, cell-based
[3] = biological target: NACHT, LRR and PYD domains-containing protein 3 (Mus musculus, UniProt Q8R4B8); assay: Inhibition of NLRP3 inflammasome activation in LPS/nigericin-treated C57BL/6 mouse bone marrow-derived macrophages assessed as reduction in IL-1beta secretion preincubated for 3 hrs with LPS and for 30 mins with compound prior to nigericin addition and measured after 30 mins by ELISA; assay type: cell-based, BMDM
Sequence of NACHT, LRR and PYD domains-containing protein 3 (Q8R4B8 whole entry, the tested form may be a part): as above

[4] = Metabolic stability in human hepatocytes assessed as intrinsic clearance by LC-MS/MS analysis; assay type: ADME, cell-based, Hepatocyte; details: read-out: CLH
[5] = Metabolic stability in human liver microsomes assessed as half life by LC-MS/MS analysis; assay type: ADME, Microsome
[6] = Metabolic stability in human liver microsomes assessed as intrinsic clearance by LC-MS/MS analysis; assay type: ADME, Microsome; details: read-out: CLH

For COc1cc(/C=C/c2ccc(NC(=O)c3ccc(Cl)cc3)cc2)c(/C=C/[N+](=O)[O-])c(OC)c1, which inhibition [1] is on record?
Its inhibition is 50%.

What about the IC50 at 24 h [2] of the same compound?
The IC50 at 24 h was greater than 100 µM.

For COc1cc(/C=C/c2ccc(NC(=O)c3ccccn3)cc2)c(/C=C/[N+](=O)[O-])c(OC)c1, which inhibition [1] is on record?
Its inhibition is 60%.

What about the IC50 at 24 h [2] of the same compound?
Its IC50 at 24 h is greater than 100 µM.

Which results are given for COc1cc(/C=C/c2ccc(NC(=O)c3ccoc3)cc2)c(/C=C/[N+](=O)[O-])c(OC)c1?
inhibition [1]: 64.2%; IC50 at 24 h [2]: > 100 µM

For COc1cc(/C=C/c2ccc(NC(=O)c3ccccc3F)cc2)c(/C=C/[N+](=O)[O-])c(OC)c1, which inhibition [1] is on record?
Its inhibition is 38.9%.

What about the IC50 at 24 h [2] of the same compound?
The IC50 at 24 h was greater than 100 µM.

For COc1cc(/C=C/c2ccc(NC(=O)/C=C/c3ccccc3)cc2)c(/C=C/[N+](=O)[O-])c(OC)c1, which inhibition [1] is on record?
Its inhibition is 30.7%.

What about the IC50 [3] of the same compound?
Its IC50 is greater than 10 µM.

What about the IC50 at 24 h [2] of the same compound?
Its IC50 at 24 h is greater than 100 µM.

Which inhibition [1] does the source give for COc1cc(/C=C/c2ccc(NC(=O)c3ccccc3Br)cc2)c(/C=C/[N+](=O)[O-])c(OC)c1 here?
The inhibition was 36%.

What about the IC50 [3] of the same compound?
The IC50 was greater than 10 µM.

And the IC50 at 24 h [2]?
Its IC50 at 24 h is greater than 100 µM.

Which results are given for C=C1C(=O)[C@]23[C@H](O)[C@H]1CC[C@H]2[C@@]12CO[C@]3(O)[C@@H](O)[C@@H]1C(C)(C)CC[C@@H]2O [ORIDONIN]?
inhibition [1]: 73.8%; IC50 at 24 h [2]: 42.2 µM

With COc1cc(/C=C/c2ccc(NC(=O)c3ccc4ccccc4c3)cc2)c(/C=C/[N+](=O)[O-])c(OC)c1 as the compound, how does the inhibition [1] read?
The inhibition was 57.2%.

What about the IC50 [3] of the same compound?
Its IC50 is greater than 10 µM.

What about the IC50 at 24 h [2] of the same compound?
Its IC50 at 24 h is 131 µM.

For COc1cc(/C=C/c2ccc(NC(=O)c3ccccc3OC)cc2)c(/C=C/[N+](=O)[O-])c(OC)c1, which inhibition [1] is on record?
Its inhibition is 31%.

And the IC50 at 24 h [2]?
The IC50 at 24 h was greater than 100 µM.

With CCc1ccc(C(=O)Nc2ccc(/C=C/c3cc(OC)cc(OC)c3/C=C/[N+](=O)[O-])cc2)cc1 as the compound, how does the inhibition [1] read?
The inhibition was 39%.

And the IC50 at 24 h [2]?
The IC50 at 24 h was greater than 100 µM.

For COc1cc(/C=C/c2ccc(NC(=O)c3ccc(C)o3)cc2)c(/C=C/[N+](=O)[O-])c(OC)c1, which inhibition [1] is on record?
The inhibition was 69.5%.

And the IC50 at 24 h [2]?
The IC50 at 24 h was greater than 100 µM.

For COc1cc(/C=C/c2ccc(NC(=O)COc3ccccc3)cc2)c(/C=C/[N+](=O)[O-])c(OC)c1, which inhibition [1] is on record?
Its inhibition is 7.5%.

What about the IC50 at 24 h [2] of the same compound?
Its IC50 at 24 h is greater than 100 µM.

Which inhibition [1] does the source give for COc1cc(/C=C/c2ccc(NC(=O)c3ccccc3Cl)cc2)c(/C=C/[N+](=O)[O-])c(OC)c1 here?
The inhibition was 28.9%.

And the IC50 at 24 h [2]?
Its IC50 at 24 h is greater than 100 µM.

With COc1cc(/C=C/c2ccc(NC(=O)c3ccc(I)cc3)cc2)c(/C=C/[N+](=O)[O-])c(OC)c1 as the compound, how does the inhibition [1] read?
The inhibition was 30.7%.

And the IC50 at 24 h [2]?
Its IC50 at 24 h is greater than 100 µM.

With COc1cc(/C=C/c2ccc(NC(=O)c3ccccc3)cc2)c(/C=C/[N+](=O)[O-])c(OC)c1 as the compound, how does the inhibition [1] read?
Its inhibition is 72.2%.

And the IC50 [3]?
The IC50 was 1.56 µM.

And the IC50 at 24 h [2]?
The IC50 at 24 h was greater than 100 µM.

With COc1cccc(C(=O)Nc2ccc(/C=C/c3cc(OC)cc(OC)c3/C=C/[N+](=O)[O-])cc2)c1 as the compound, how does the inhibition [1] read?
Its inhibition is 24%.

What about the IC50 at 24 h [2] of the same compound?
The IC50 at 24 h was greater than 100 µM.

Which inhibition [1] does the source give for COc1ccc(C(=O)Nc2ccc(/C=C/c3cc(OC)cc(OC)c3/C=C/[N+](=O)[O-])cc2)cc1 here?
Its inhibition is 41%.

What about the IC50 [3] of the same compound?
Its IC50 is greater than 10 µM.

What about the IC50 at 24 h [2] of the same compound?
The IC50 at 24 h was greater than 100 µM.

With COc1cc(/C=C/c2ccc(NC(=O)C(C)(C)C)cc2)c(/C=C/[N+](=O)[O-])c(OC)c1 as the compound, how does the inhibition [1] read?
The inhibition was 52.7%.

What about the IC50 at 24 h [2] of the same compound?
Its IC50 at 24 h is greater than 100 µM.

Which results are given for COc1cc(/C=C/c2ccc(NC(=O)C3CC3)cc2)c(/C=C/[N+](=O)[O-])c(OC)c1?
CLint scaled [4]: 11.7 mL/min/kg; half-life [5]: 59.7 min; microsomal CLint [6]: 23.2 µL/min/mg

Which inhibition [1] does the source give for COc1cc(/C=C/c2ccc(NC(=O)c3cc4ccccc4o3)cc2)c(/C=C/[N+](=O)[O-])c(OC)c1 here?
The inhibition was 6.47%.

What about the IC50 at 24 h [2] of the same compound?
Its IC50 at 24 h is greater than 100 µM.

Which results are given for COc1cc(/C=C/c2ccc(NC(=O)C3CCCO3)cc2)c(/C=C/[N+](=O)[O-])c(OC)c1 (centres undefined)?
inhibition [1]: 65.2%; IC50 at 24 h [2]: > 100 µM

With COc1cc(/C=C/c2ccc(NC(=O)c3cccs3)cc2)c(/C=C/[N+](=O)[O-])c(OC)c1 as the compound, how does the inhibition [1] read?
The inhibition was 66%.

And the IC50 [3]?
The IC50 was 2.15 µM.

And the IC50 at 24 h [2]?
Its IC50 at 24 h is greater than 100 µM.

For COc1cc(/C=C/c2ccc(NC(=O)c3cccc4ccccc34)cc2)c(/C=C/[N+](=O)[O-])c(OC)c1, which inhibition [1] is on record?
Its inhibition is 4.62%.

And the IC50 at 24 h [2]?
The IC50 at 24 h was greater than 100 µM.

Which inhibition [1] does the source give for COc1cc(/C=C/c2ccc(NC(=O)c3cccc(Cl)c3)cc2)c(/C=C/[N+](=O)[O-])c(OC)c1 here?
The inhibition was 24%.

What about the IC50 at 24 h [2] of the same compound?
The IC50 at 24 h was greater than 100 µM.

Which results are given for COc1cc(/C=C/c2ccc(NC(=O)c3ccccc3C)cc2)c(/C=C/[N+](=O)[O-])c(OC)c1?
inhibition [1]: 39%; IC50 at 24 h [2]: > 100 µM

With COc1cc(/C=C/c2ccc(NC(=O)c3ccc(C)cc3)cc2)c(/C=C/[N+](=O)[O-])c(OC)c1 as the compound, how does the inhibition [1] read?
The inhibition was 28.6%.

What about the IC50 at 24 h [2] of the same compound?
The IC50 at 24 h was greater than 100 µM.

What does the source list for COc1cc(/C=C/c2ccc(NC(=O)c3ccc(F)cc3)cc2)c(/C=C/[N+](=O)[O-])c(OC)c1?
inhibition [1]: 44%; IC50 [3]: 9.34 µM; IC50 at 24 h [2]: > 100 µM

With O=[N+]([O-])/C=C/c1ccc2c(c1)OCO2 as the compound, how does the inhibition [1] read?
The inhibition was 75.1%.

And the IC50 at 24 h [2]?
Its IC50 at 24 h is 39.2 µM.

Which inhibition [1] does the source give for COc1cc(/C=C/c2ccc(NC(=O)c3cccc(F)c3)cc2)c(/C=C/[N+](=O)[O-])c(OC)c1 here?
Its inhibition is 39.9%.

And the IC50 at 24 h [2]?
Its IC50 at 24 h is greater than 100 µM.

For CCOc1ccc(C(=O)Nc2ccc(/C=C/c3cc(OC)cc(OC)c3/C=C/[N+](=O)[O-])cc2)cc1, which inhibition [1] is on record?
The inhibition was 39.9%.

What about the IC50 at 24 h [2] of the same compound?
Its IC50 at 24 h is greater than 100 µM.

With COc1cc(/C=C/c2ccc(NC(=O)c3cccc(C)c3)cc2)c(/C=C/[N+](=O)[O-])c(OC)c1 as the compound, how does the inhibition [1] read?
Its inhibition is 39.9%.

And the IC50 at 24 h [2]?
Its IC50 at 24 h is greater than 100 µM.

With COc1cc(/C=C/c2ccc(NC(=O)c3ccc(Br)cc3)cc2)c(/C=C/[N+](=O)[O-])c(OC)c1 as the compound, how does the inhibition [1] read?
Its inhibition is 46.2%.

And the IC50 at 24 h [2]?
The IC50 at 24 h was greater than 100 µM.

For COc1cc(/C=C/c2ccc(NC(=O)c3cccc(Br)c3)cc2)c(/C=C/[N+](=O)[O-])c(OC)c1, which inhibition [1] is on record?
The inhibition was 20.1%.

And the IC50 at 24 h [2]?
Its IC50 at 24 h is greater than 100 µM.
